# Reference: ChEMBL document CHEMBL1201862, “PubChem BioAssay data set” (2004)
#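 How tested: cells in 96-well plates exposed to compound for 48 hours at five concentrations. At the GI50, growth is halved.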 The source made the active and inactive calls. Cut-off read from the data, not from the text of the source: active = GI50 up to about 1.1 µM and inactive = higher.
# Tests used:
# Experiment in all cases: growth of human tumour cells (NCI), 48 h
# BT-549 = test system: BT-549
# EKVX = test system: EKVX
# HOP-92 = test system: HOP-92
# NCI/ADR-RES = test system: NCI/ADR-RES
# OVCAR-3 = test system: OVCAR-3
# OVCAR-4 = test system: OVCAR-4
# OVCAR-5 = test system: OVCAR-5
# RPMI-8226 = test system: RPMI-8226
# RXF 393 = test system: RXF 393
# SK-MEL-28 = test system: SK-MEL-28
# SN12C = test system: SN12C
# SNB-75 = test system: SNB-75
# SW-620 = test system: SW-620
# U-251 = test system: U-251
# UO-31 = test system: UO-31
# CCRF-CEM = test system: CCRF-CEM
# HT-29 = test system: HT-29
# HL-60 = test system: HL-60
# SF-539 = test system: SF-539
SMILES,GI50 (BT-549),GI50 (EKVX),GI50 (HOP-92),GI50 (NCI/ADR-RES),GI50 (OVCAR-3),GI50 (OVCAR-4),GI50 (OVCAR-5),GI50 (RPMI-8226),GI50 (RXF 393),GI50 (SK-MEL-28),GI50 (SN12C),GI50 (SNB-75),GI50 (SW-620),GI50 (U-251),GI50 (UO-31),GI50 (CCRF-CEM),GI50 (HT-29),GI50 (HL-60),GI50 (SF-539)
O=C1Cc2c([nH]c3ccc(Br)cc23)-c2cc(O)c(O)cc2N1,> 100 µM (inactive),> 100 µM (inactive),> 100 µM (inactive),> 100 µM (inactive),> 100 µM (inactive),> 100 µM (inactive),> 100 µM (inactive),> 100 µM (inactive),> 100 µM (inactive),> 100 µM (inactive),> 100 µM (inactive),> 100 µM (inactive),> 100 µM (inactive),> 100 µM (inactive),> 100 µM (inactive),,,,
Nc1nonc1-c1noc(-c2nonc2N)[n+]1[O-],64.1 µM (inactive),30.8 µM (inactive),69.8 µM (inactive),69.2 µM (inactive),,> 100 µM (inactive),33.7 µM (inactive),54.6 µM (inactive),24.9 µM (inactive),> 100 µM (inactive),> 100 µM (inactive),,27 µM (inactive),> 100 µM (inactive),42.9 µM (inactive),0.366 µM (active),16 µM (inactive),,
CC(C)(C)[Si](C)(C)OCC1CCC(n2cnc3c(=O)[nH]cnc32)O1 (stereo not given),,> 100 µM (inactive),> 100 µM (inactive),45.6 µM (inactive),> 100 µM (inactive),> 100 µM (inactive),> 100 µM (inactive),65.5 µM (inactive),> 100 µM (inactive),> 100 µM (inactive),> 100 µM (inactive),20.3 µM (inactive),> 100 µM (inactive),> 100 µM (inactive),> 100 µM (inactive),68.5 µM (inactive),> 100 µM (inactive),74.8 µM (inactive),> 100 µM (inactive)
COc1ccc(/C=C2\N=C(SC)N(CN3CCCCC3)C2=O)cc1,,> 100 µM (inactive),0.347 µM (active),> 100 µM (inactive),> 100 µM (inactive),> 100 µM (inactive),> 100 µM (inactive),> 100 µM (inactive),,> 100 µM (inactive),> 100 µM (inactive),> 100 µM (inactive),> 100 µM (inactive),> 100 µM (inactive),> 100 µM (inactive),,> 100 µM (inactive),,
O=[N+]([O-])/C(C(Cl)=C(Cl)Cl)=C(\Nc1cccc2ccccc12)Sc1ccccc1,18.4 µM (inactive),11.4 µM (inactive),,15.2 µM (inactive),7.31 µM (inactive),10.4 µM (inactive),20.3 µM (inactive),6.89 µM (inactive),12.9 µM (inactive),18.7 µM (inactive),20.2 µM (inactive),19.2 µM (inactive),8.53 µM (inactive),11.4 µM (inactive),16 µM (inactive),8.55 µM (inactive),19.5 µM (inactive),,19.3 µM (inactive)
CN1CCN(C(=S)N(C)C(=O)c2ccc(Cl)cc2)CC1,> 100 µM (inactive),,> 100 µM (inactive),,> 100 µM (inactive),> 100 µM (inactive),> 100 µM (inactive),> 100 µM (inactive),> 100 µM (inactive),> 100 µM (inactive),> 100 µM (inactive),> 100 µM (inactive),> 100 µM (inactive),> 100 µM (inactive),> 100 µM (inactive),> 100 µM (inactive),> 100 µM (inactive),> 100 µM (inactive),
